Test results published in US20190117675A1, “Compositions And Methods To Treat And/Or Prevent Vision Disorders Of The Lens Of The Eye” (Helix Holding Company, priority 2014, published 2019).
Entries after “also recorded” stand apart in the source; their conditions may differ.

Tests used:
cataractous rabbit lens = experiment: Treatment of isolated cataractous rabbit lenses; settings: isolated rabbit lenses incubated with lanosterol for 6 days
Method: FIG. 9. […] Rabbit lenses (n=13) were dissected and incubated with lanosterol for 6 days and subsequently assessed for lens clarity and transparency. Pairs of photographs of each cataractous rabbit lens showing before and after treatment with scores underneath are shown.
Rabbits were euthanized by CO2 inhalation and lenses were immediately dissected and were treated with vehicle or lanosterol dissolved in vehicle to make 5 mM solutions. Lens tissues were incubated in these solutions for 6 days in the dark at room temperature. Cataract were examined under a microscope and then photographed. Degree of cataract was assessed using AREDS cataract grading system.

[1] = Lanosterol eye drop formulation evaluation (stability, irritation, intraocular bioavailability); settings: dissolved in pure aqueous solution
Description: The optimal formulation was selected based on the stability of the active ingredient, irritation, and intraocular bioavailability of the eye drops.

dog eyes with cataracts = experiment: Treatment of cataract lenses in dogs; assay type: in vivo; settings: dog eyes treated with lanosterol for 6 weeks (intravitreal nanoparticles plus eye drops three times daily)
Method: Grading System of Dog Cataract • Grade 0: absence of opacification (no cataract); • Grade 1: a slight degree of opacification (incipient stage); • Grade 2: presence of diffuse opacification involving almost the entire lens (immature stage); • Grade 3: presence of extensive thick opacification involving the entire lens (mature stage)
To assess the effect of lanosterol treatment on cataract in live animals, left eye of dogs with bilateral cataract were treated for topical eye drops. The right eye of each animal was administered one drop of vehicle, 3 times a day so that the drop coated the eye. One drop of lanosterol was administered to the left eye of each animal in the same manner. Both eyes of some control animals were treated for vehicle. […] Each lens was recorded by photography. Degree of cataract was assessed using AREDS cataract grading system.
This study was approved by TACUC of Zhongshan Ophthalmic Center and West China Hospital. […] Degree of cataract was assessed by a blinded examiner and scored based on canine cataract stage, shown below. Improvements in lens clarity and transparency were quantified. […]
The mixture solution was then stirred for 2 h to allow the nanoparticles to form and the acetonitrile to evaporate. […] The loading yield of lanosterol was quantified by high performance liquid chromatography.

[2] = molecular target: T1, αB-crystallin R120G mutant (Homo sapiens, UniProt P02511, R120G); experiment: Negative-stain EM of aggregates treated with sterol in liposome; assay type: biochemical; settings: negatively stained EM
T1 construct: made in house
T1 sequence (P02511 1-175 R120G): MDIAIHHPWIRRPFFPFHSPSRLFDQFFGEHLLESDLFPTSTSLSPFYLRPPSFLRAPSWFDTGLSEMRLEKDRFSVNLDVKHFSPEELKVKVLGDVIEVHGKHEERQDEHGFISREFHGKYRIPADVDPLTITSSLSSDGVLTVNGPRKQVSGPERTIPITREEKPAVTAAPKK
Method: Representative negatively stained EM pictures of the aggregates of αB-crystallin R120G mutant treated by liposome, lanosterol in liposome and cholesterol in liposome, respectively. The EM samples were stained by 1.25% uranyl acetate.
Quantitative analysis was performed by calculating the number of particles with length over 50 nm from six randomly picked viewing field. Each viewing field contained 30-50 particles.
The aggregates of the WT and mutated αA- and αB-crystallin proteins were obtained by heating the proteins solutions containing 1 M guanidine chloride (ultrapure, Sigma) with a concentration of 5 mg/ml at 60° C. for 48 h. The aggregates of the WT and mutated β- and γ-crystallins were prepared by heating the protein solutions at pH 3 and 37° C. for 48 h. The formation of aggregates was confirmed by turbidity (absorbance at 400 nm) and transmission electron microscope (EM) measurements. The preformed aggregates were resuspended in 20 mM PBS with a final concentration of 0.1 mg/ml (approximately 5 μM). The resuspended aggregates were treated by 50 μM lanosterol or cholesterol in liposomes formed by 50 μM DPPS at 37° C. […] The soluble proteins were determined by centrifuge the protein solutions to separate the supernatant and precipitation fractions. Then the protein concentration in the supernatant was determined by the Bradford method. […]

[3] = tested on: aA-crystallin-Y118D and aB-crystallin-R120G; experiment: Dissolving of accumulated crystal protein in cells carrying two crystallin mutant plasmids; assay type: cell-based; settings: 10 uM, compared with 1% DMSO solution
Method: FIG. 13. Two mutant crystal proteins were introduced into cells. The accumulated crystal protein were treated by adding different agents.
Cyclopentanoperhy drophenanthrene compounds of the present invention refers to a compound containing cyclopentanoperhy drophenanthrene skeleton structure, including its derivatives. After the two crystal protein mutant plasmid aA-crystallin-Y118D and aB-crystallin-R120G were introduced into cells, we investigated the lanosterol and its derivatives as well as cholesterol (Cholesterol) for their effects on intracellular accumulation of crystal protein. Not all cyclopentanoperhy drophenanthrene compound have the same effect.

For `CC(C)=CCC[C@@H](C)[C@H]1CC[C@@]2(C)C3=C(CC[C@]12C)[C@@]1(C)CC[C@H](O)C(C)(C)[C@@H]1CC3` [Lanosterol], the “cataract severity and lens clarity” value (cataractous rabbit lens) was “reduced cataract severity and increased clarity”, the “stability and solubility of lanosterol” value [1] was “poor stability and low solubility” and the “cataract severity and lens clarity” value (dog eyes with cataracts) was “reduced cataract severity and increased lens clarity”. The “dissociation of aggregates formed by αB-crystallin R120G mutant (number of particles with length over 50 nm)” value [2] was “dissociates the aggregates” and the “dissolving of accumulated crystal protein” value [3] was “significantly dissolve accumulated crystals protein; also recorded: significant dissolving of the accumulated crystal protein”.
